Data reported in the NIST ThermoML archive (doi:10.1016/j.tca.2012.07.004).

Assay: xn = mol fraction of the nth substance listed
Settings: 101 kPa, Liquid; for mass density: Vibrating tube method; for viscosity: Vibrating wire viscometry; for speed of sound: ultrasonic interferometer

C[NH+](C)C.O=S(=O)([O-])O [trimethylammonium hydrogen sulfate] + CN1CCCC1=O
Settings | mass density, 308.15 K [kg/m3] | mass density, 313.15 K [kg/m3] | speed of sound, 308.15 K [m/s] | speed of sound, 313.15 K [m/s] | viscosity, 308.15 K [mPa·s] | viscosity, 313.15 K [mPa·s]
x1 = 0.0183 | 1029.88 | 1024.27 | 1529 | 1521 | 1.91 | 1.45
x1 = 0.0369 | 1041.19 | 1035.08 | 1530 | 1523 | 2.48 | 1.76
x1 = 0.0964 | 1073.31 | 1066.52 | 1534 | 1526 | 4.55 | 3.52
x1 = 0.138 | 1091.47 | 1083.97 | 1536 | 1528 | 5.68 | 4.79
x1 = 0.2014 | 1115.24 | 1107.81 | 1539 | 1530 | 7.18 | 6.19
x1 = 0.3115 | 1146.54 | 1135.87 | 1545 | 1539 | 8.38 | 7.09
x1 = 0.3587 | 1155.39 | 1145.43 | 1549 | 1541 | 8.48 | 7.14
x1 = 0.4311 | 1170.29 | 1157.43 | 1553 | 1545 | 8.26 | 6.99
x1 = 0.5579 | 1196.63 | 1185.37 | 1560 | 1550 | 7.19 | 6.15
x1 = 0.6955 | 1239.34 | 1225.55 | 1561 | 1551 | 5.89 | 4.7
x1 = 0.775 | 1273.99 | 1260.83 | 1560 | 1550 | 5.25 | 3.99
x1 = 0.843 | 1315.25 | 1295.67 | 1559 | 1553 | 4.4 | 3.52
x1 = 0.9375 | 1383.15 | 1369.46 | 1558 | 1552 | 4.28 | 3.35
x1 = 0.97 | 1417.02 | 1404.25 | 1557 | 1552 | 4.01 | 3.23
x1 = 1 | 1463.5 | 1455.63 | 1556 | 1552 | 3.94 | 3.16
